According to ChEMBL document CHEMBL1201862, “PubChem BioAssay data set” (2004):
Activity calls are given as the source filed them.

Assays:
[1] = target: T1, Sphingosine 1-phosphate receptor 4 (Homo sapiens, UniProt O95977); experiment: Fluorescence dose response cell-based high throughput screening assay for agonists of the Sphingosine 1-Phosphate Receptor 4 (S1P4). [Related pubchem assays: 1509 (Primary screen.), 1523 (Confirmation screen in triplicates.)]; assay type: functional
T1 sequence (O95977 whole entry): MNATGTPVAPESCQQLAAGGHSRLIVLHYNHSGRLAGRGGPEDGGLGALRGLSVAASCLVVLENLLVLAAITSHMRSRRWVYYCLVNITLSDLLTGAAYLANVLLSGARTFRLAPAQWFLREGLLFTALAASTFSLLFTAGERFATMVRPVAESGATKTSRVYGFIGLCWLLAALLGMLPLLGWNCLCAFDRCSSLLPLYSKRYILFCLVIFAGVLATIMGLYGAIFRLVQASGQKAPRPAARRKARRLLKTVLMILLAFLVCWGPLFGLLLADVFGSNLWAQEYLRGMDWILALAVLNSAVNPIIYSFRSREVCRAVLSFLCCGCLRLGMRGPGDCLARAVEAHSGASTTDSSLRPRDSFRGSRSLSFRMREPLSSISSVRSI

[2] = target: T2, RNA-binding protein pos-1 (Caenorhabditis elegans, UniProt G5EF15); experiment: inhibitors of POS-1/mex-3 RNA binding, dose response, biochemical, fluorescence polarization (AID 1964);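 further: purified POS-1 fused to maltose binding protein made in E. coli; potency of compounds blocking POS-1 binding to fluorescent RNA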
T2 sequence (G5EF15 whole entry): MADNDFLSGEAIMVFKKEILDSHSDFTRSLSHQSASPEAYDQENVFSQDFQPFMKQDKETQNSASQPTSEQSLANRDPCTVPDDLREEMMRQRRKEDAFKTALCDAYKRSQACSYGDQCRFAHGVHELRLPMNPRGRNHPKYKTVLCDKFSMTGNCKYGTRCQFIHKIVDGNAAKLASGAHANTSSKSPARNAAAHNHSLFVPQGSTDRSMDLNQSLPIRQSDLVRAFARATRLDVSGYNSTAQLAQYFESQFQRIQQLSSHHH

[3] = target: Sphingosine 1-phosphate receptor 1 (Homo sapiens, UniProt P21453); experiment: Fluorescence-based counterscreen assay for S1P4 agonists: Cell-based dose response high throughput screening assay to identify agonists of the Sphingosine 1-Phosphate Receptor 1 (S1P1). [Related pubchem assays (depositor defined):AID1509, AID1523, AID1801, AID463107, AID463118, AID463119, AID463122, AID463123, AID463129, AID463225, AID504400, AID504460]; assay type: functional
[4] = target: T3, Zinc finger protein mex-5 (Caenorhabditis elegans, UniProt Q9XUB2); experiment: MEX-5/TCR-2 RNA interaction inhibitors, dose response, biochemical, C. elegans, fluorescence polarization (AID 1960)
T3 sequence (Q9XUB2 whole entry): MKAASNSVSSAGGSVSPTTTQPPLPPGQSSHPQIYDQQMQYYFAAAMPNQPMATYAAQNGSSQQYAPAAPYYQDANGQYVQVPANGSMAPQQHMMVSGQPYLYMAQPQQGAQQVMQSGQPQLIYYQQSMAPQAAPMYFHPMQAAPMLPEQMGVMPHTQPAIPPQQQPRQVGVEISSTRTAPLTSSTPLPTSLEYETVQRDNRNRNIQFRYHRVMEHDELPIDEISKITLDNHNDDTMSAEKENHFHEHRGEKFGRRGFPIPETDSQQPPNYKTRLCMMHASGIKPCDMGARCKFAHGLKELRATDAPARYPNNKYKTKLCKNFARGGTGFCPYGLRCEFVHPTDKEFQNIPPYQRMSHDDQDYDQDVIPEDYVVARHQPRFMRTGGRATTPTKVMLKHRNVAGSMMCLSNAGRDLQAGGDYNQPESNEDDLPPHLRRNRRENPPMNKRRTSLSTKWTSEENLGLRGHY

[5] = target: Peroxisome proliferator-activated receptor gamma/Nuclear receptor coactivator 2 (Homo sapiens, UniProt P37231); experiment: (§1) TR-FRET dose response biochemical High Throughput Screening assay for agonists of the steroid receptor coactivator 2 (SRC-2) recruitment by the peroxisome proliferator-activated receptor gamma (PPAR gamma): non-selective agonists. [Related pubchem assays: 1297, 1032 ]; assay type: functional
Troponin, cardiac muscle = Troponin, cardiac muscle (Homo sapiens, UniProt P19429+P45379+P63316); experiment: Fluorescence-based biochemical high throughput dose response assay for activators of the calcium sensitivity of cardiac Regulated Thin Filaments (RTF). [Related pubchem assays (depositor defined):AID493008, AID493018, AID504382, AID504383]; assay type: protein-complex assay
[6] = target: Peroxisome proliferator-activated receptor gamma/Nuclear receptor coactivator 3 (Homo sapiens, UniProt P37231); experiment: as §1, with “3 (SRC-3)” for “2 (SRC-2)”, “1301 (Confirmation screen.), 1048 (Primary screen.)]” for “1297, 1032 ]”; assay type: functional
[7] = target: Peroxisome proliferator-activated receptor gamma/Nuclear receptor coactivator 1 (Homo sapiens, UniProt P37231); experiment: as §1, with “1 (SRC-1)” for “2 (SRC-2)”, “assays (depositor defined):AID1300, AID1808, AID504735, AID631]” for “assays: 1297, 1032 ]”; assay type: protein assay
[8] = target: T4, Tyrosine-protein phosphatase non-receptor type 22 (Homo sapiens, UniProt Q9Y2R2); assay type: functional
[9] = target: T4, Tyrosine-protein phosphatase non-receptor type 22; assay type: functional; remark: listed apart in the source
[10] = target: Tyrosine-protein phosphatase non-receptor type 7 (Homo sapiens, UniProt P35236); assay type: functional
[11] = target: T5, High affinity choline transporter 1 (Homo sapiens, UniProt Q9GZV3); experiment: CHT inhibitors, dose response, cell-based, 5-point CRC, membrane potential dye (AID 504840); assay type: functional
T5 sequence (Q9GZV3 whole entry): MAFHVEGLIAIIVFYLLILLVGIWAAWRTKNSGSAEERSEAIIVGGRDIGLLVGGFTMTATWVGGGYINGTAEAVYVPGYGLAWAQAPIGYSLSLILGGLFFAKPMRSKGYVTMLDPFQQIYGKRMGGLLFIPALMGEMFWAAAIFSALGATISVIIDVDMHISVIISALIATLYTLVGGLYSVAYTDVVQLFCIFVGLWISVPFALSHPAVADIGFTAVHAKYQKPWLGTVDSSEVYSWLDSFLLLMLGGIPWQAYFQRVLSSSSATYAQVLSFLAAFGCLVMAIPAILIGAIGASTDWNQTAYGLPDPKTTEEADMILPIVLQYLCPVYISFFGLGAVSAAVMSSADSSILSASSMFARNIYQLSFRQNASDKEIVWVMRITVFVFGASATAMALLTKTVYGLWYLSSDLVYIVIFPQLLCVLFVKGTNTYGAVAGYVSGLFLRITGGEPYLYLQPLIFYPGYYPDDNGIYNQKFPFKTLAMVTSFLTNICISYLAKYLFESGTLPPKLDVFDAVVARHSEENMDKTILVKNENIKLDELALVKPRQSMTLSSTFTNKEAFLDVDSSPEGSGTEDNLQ

[12] = target: T6, Replicative DNA helicase DnaB (Mycobacterium tuberculosis, UniProt P9WMR3); experiment: DnaB intein splicing inhibitors, dose response, biochemical, cell-free fluorescence (AID 449749); assay type: functional
T6 sequence (P9WMR3 whole entry): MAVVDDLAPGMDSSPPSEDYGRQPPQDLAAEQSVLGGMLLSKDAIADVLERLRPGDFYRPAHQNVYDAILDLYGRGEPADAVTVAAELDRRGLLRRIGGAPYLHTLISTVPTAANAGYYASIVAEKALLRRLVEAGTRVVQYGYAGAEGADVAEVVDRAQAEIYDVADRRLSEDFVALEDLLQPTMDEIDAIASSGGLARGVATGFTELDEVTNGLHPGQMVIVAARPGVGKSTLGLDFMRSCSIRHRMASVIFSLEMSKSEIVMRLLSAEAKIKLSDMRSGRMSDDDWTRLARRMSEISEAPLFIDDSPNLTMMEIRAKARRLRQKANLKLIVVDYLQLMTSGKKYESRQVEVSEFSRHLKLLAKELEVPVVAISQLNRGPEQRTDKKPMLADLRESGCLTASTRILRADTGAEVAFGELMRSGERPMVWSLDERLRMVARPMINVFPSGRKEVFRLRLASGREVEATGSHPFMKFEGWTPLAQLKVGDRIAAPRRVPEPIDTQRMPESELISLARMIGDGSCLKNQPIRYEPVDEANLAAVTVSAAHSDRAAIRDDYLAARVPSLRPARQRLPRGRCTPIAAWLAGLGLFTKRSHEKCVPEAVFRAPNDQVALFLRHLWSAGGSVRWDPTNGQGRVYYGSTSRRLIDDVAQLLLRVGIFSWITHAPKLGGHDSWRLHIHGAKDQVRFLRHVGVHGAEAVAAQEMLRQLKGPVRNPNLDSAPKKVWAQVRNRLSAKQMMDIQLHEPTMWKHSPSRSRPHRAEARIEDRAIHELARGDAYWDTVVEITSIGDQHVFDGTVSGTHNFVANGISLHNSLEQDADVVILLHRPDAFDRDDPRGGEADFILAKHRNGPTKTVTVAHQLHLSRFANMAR

[13] = target: Protein-arginine deiminase type-4 (Homo sapiens, UniProt Q9UM07); experiment: human PAD4 inhibitor potency, dose response, biochemical, fluorescence readout (AID 492970)
Protein RecA = target: T7, Protein RecA (Mycobacterium tuberculosis, UniProt P9WHJ3); experiment: Fluorescence Cell-Free Homogeneous Dose Retest to Identify Inhibitors of RecA-Intein Splicing Activity. [Related pubchem assays (depositor defined):AID2097, AID2223, AID489010, AID492950]; assay type: functional
T7 sequence (P9WHJ3 whole entry): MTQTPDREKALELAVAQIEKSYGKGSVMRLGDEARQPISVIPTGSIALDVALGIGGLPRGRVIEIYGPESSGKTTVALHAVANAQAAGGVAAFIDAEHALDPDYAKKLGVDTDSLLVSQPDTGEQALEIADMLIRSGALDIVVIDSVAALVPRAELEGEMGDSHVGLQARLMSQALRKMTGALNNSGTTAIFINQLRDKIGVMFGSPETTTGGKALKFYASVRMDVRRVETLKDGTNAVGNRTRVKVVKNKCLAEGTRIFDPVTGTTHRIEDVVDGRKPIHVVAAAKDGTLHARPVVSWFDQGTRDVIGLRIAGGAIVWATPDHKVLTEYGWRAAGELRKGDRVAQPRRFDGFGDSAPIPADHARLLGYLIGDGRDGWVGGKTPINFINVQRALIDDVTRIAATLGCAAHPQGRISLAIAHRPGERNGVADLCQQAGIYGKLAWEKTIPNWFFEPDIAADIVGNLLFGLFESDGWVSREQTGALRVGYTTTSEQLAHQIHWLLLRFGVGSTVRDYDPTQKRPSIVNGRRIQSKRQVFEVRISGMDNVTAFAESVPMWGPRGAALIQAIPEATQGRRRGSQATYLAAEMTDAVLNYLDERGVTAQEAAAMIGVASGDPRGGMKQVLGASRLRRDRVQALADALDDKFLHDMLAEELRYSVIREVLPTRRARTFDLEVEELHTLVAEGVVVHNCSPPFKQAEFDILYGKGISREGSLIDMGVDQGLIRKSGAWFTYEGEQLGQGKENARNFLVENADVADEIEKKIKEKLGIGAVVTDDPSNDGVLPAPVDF

CCOC(=O)c1c(-n2c(C)cc(C=C3C(=O)NC(=O)NC3=O)c2C)sc2c1CCCC2
EC50 [1]: > 16.6 µM (not active) | EC50 [2]: > 300 µM (inconclusive) | EC50 [3]: > 49.8 µM (inactive) | EC50 [4]: > 300 µM (inconclusive)

CNC(=S)N1N=C(c2ccc(Br)cc2)CC1c1ccc(N(C)C)cc1 (stereo not given)
EC50 [5]: 14 µM (not active) | EC50 (Troponin, cardiac muscle): 40 µM (inactive) | EC50 [6]: > 79.4 µM (not active) | EC50 [7]: 11.6 µM (inactive)

Cc1occc1C(=O)NNS(=O)(=O)c1ccc(Cl)cc1
IC50 [8]: > 79.4 µM (inactive) | IC50 [9]: > 79.4 µM (inactive) | IC50 [10]: > 79.4 µM (inactive) | IC50 [11]: 13.5 µM (active)

COC(=O)c1nc(O)c2ccccc2c1O
AC50 [12]: 5.62 µM (active) | IC50 [13]: 42 µM (inactive) | EC50 (Protein RecA): 3.57 µM (active)
